According to patent US20200157135A1, “SIDE-CHAIN MODIFIED ERGOSTEROL AND STIGMASTEROL DERIVATIVES AS LIVER X RECEPTOR MODULATORS” (Ospedale San Raffaele srl, priority 2017, published 2020):
Entries after “also recorded” stand apart in the source; their conditions may differ. Where two headings read alike, the source gives them in different places.

Legend:
hLXRα = biological target: T1, hLXRα (Homo sapiens, UniProt Q13133); assay: luciferase assay with GAL-4 chimeric hLXRα receptor in human embryonic kidney 293 cells; assay type: cell-based; details: for EC50: GAL4-hLXRα luciferase, HEK293, dose-response 32-1 μM, mean of three-five independent experiments, read-out: LXRα EC50 (μM) ± SD; for Emax: HEK293, 24 h, read-out: LXRα Efficacy (%) ± SD; for LXR isoform selectivity profile: LXRα versus LXRβ, GAL4 luciferase assays
T1 sequence (Q13133 209-447 limits assumed): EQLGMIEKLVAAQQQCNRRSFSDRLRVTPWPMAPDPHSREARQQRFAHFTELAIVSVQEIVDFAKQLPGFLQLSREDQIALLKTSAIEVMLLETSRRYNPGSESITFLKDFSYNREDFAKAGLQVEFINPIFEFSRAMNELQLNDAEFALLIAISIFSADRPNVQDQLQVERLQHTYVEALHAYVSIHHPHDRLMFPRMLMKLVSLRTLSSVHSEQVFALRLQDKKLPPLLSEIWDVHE
Experimental: (§1) All the synthesized compounds were first tested for their ability to activate LXRs by using luciferase assays with GAL-4 chimeric receptors. These were performed by co-transfecting plasmids encoding hLXRα- and β-binding domains fused to GAL-4, with the respective responsive element conjugated with the luciferase reporter gene into the human embryonic kidney 293 cells.
(§2) Cell Culture and Co-transfection Assays. Human embryonic Kidney 293 cells (American Type Culture Collection) were cultured in Dulbecco's Modified Eagle's medium containing 10% of fetal bovine serum at 37° C. in humidified atmosphere of 5% CO2. HEK293 cells (4×10^4 cells per well) were transiently transfected in 48 well plate with the reporter plasmids pMH100X4-TK-luc (100 ng/well), Renilla (22 ng/well) together with 100 ng/well of pCMX-Gal4-RXR, pCMX-Gal4-PPAR-γ, pCMX-Gal4-PXR, pFA-CMV-FXR pCMX-Gal4-LXR-α or pCMX-Gal4-LXR-β plasmids using X-tremeGENE 9 DNA Transfection Reagent (Roche). Six hours after transfection, the cells were treated with the appropriate compound for 24 hours. Luciferase activities were analyzed by luciferase Dual Reporter Assay Systems (Promega) according to the manufacturer's protocol. GAL4-LXRs, GAL4-PPAR-γ, GAL4-RXR and TK-MHC100-luc plasmids were described in Villablanca et al.49 GAL4-PXR was a kind gift of Dr. Enrique Sainz (The Scripps Research Institute, La Jolla, USA). GAL4-FXR was a kind gift of Dr. Daniel Merk (Goethe-University Frankfurt am Main). The results obtained by luciferase assays and reported in Table 1 are from three to five independent experiments.
(§3) Statistical analysis. Data are expressed as mean±SEM and were analyzed for significance by ANOVA with Dunnet's multiple comparison tests. The analysis was performed with Prism software. Data in Table 1 are expressed as EC50±SD. In particular, the standard deviations were obtained by calculating the mean of the EC50 of each experiment (three to five independent experiments). The efficacy (%) of the compounds was calculated as the percentage of the compound effect, in terms of LXRα or β activation, versus 8 μM of 22R—HC±SD. The analyses were performed with Prism software.

hLXRβ = biological target: T2, hLXRβ (Homo sapiens, UniProt P55055); assay: luciferase assay with GAL-4 chimeric hLXRβ receptor in human embryonic kidney 293 cells; assay type: cell-based; details: for EC50: GAL4-hLXRβ luciferase, HEK293, dose-response 32-1 μM, mean of three-five independent experiments, read-out: LXRβ EC50 (μM) ± SD; for Emax: HEK293, 24 h
T2 sequence (P55055 222-460 limits assumed): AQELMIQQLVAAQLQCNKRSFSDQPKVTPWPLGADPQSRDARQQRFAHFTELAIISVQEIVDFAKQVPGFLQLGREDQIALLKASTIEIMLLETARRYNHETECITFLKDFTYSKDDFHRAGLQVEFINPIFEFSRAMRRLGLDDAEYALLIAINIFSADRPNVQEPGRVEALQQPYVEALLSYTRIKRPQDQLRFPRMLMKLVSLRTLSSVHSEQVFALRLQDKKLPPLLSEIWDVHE
Experimental: as §1, §2, §3

ABCA1 [1] = assay: qPCR of ABCA1 expression in PMA-differentiated U937 cells; assay type: cell-based, human; details: U937 differentiated with PMA 72 h; 10 μM, 6 hours
Experimental: (§4) U937 cells differentiated with PMA for 72 hours were treated with T0901317 (10 μM), 22R—HC (3) or with the tested compound (10 μM). […] (n=3/group). *p<0.05, **p<0.01, ***p<0.001.
(§5) LXR agonists induce the expression of target genes, which are involved in cholesterol homeostasis, particularly in the reverse cholesterol transport pathway.43 Indeed, LXR agonists induce the expression of ABCA1 both in macrophages and in many tissues of the periphery such as the intestine.44 Moreover, ABCA1 regulates cholesterol efflux to APOAI acceptors.45 In the liver, LXR activation promotes the biosynthesis of fatty acids, a process also termed as de novo lipogenesis by inducing the expression of the master regulator of hepatic lipogenesis sterol-regulatory element-binding protein 1C (SREBP-1c), as well as several downstream genes in the SREBP-1c pathway, including steroyl CoA desaturase 1 (SCD1) and fatty acid synthase (FASN).43 Therefore, it was investigated, by quantitative PCR (qPCR), the expression of ABCA1, SREBP1c, FASN, and SCD1, by using RNA from monocytic U937 cells (FIG. 3) and from hepatic HepG2 cells (FIG. 4) stimulated with our compounds, the non-steroidal agonist T0901317 or the endogenous ligand 22R—HC (3) as positive controls. […] Then, the induction of genes involved in the lipogenesis using the hepatic cell line HepG2. 43,22 was evaluated. […] Over the time, indeed, substantial efforts have been dedicated to the identification of LXR ligands able to turning on ABC transporter genes, without affecting lipogenic genes levels. This task is still one of the major challenge to the discovery of a clinically useful LXR modulator for atherosclerosis.
(§6) Quantitative Real-Time-PCR. U937 cell line was differentiated in foam macrophages with phorbol 12-myristate 13-acetate (PMA) 10 ng/ml (Sigma) for 72 hours at 37° C. in […] at the concentration of 3×10^6 cells in 10 ml RPMI 10% FBS. At day 3 nuclear receptor ligands were added for 6 hours. HepG2 cells were treated with the ligands as described by Quinet et al.22 Total RNA was purified by TRIZOL (Invitrogen, Carlsbad, Calif., USA). Reverse transcription was performed incubating 2 μg of total RNA 1 hour at 42° C. with MLV-reverse transcriptase (Promega). Quantitative PCR was performed using Sybr Green Master Mix (Applied Biosystems) and real-time PCR (Viia 7 Real Time PCR System, Applied Biosystems). All PCR reactions were done in triplicate. The comparative Ct method was used to quantify transcripts that were normalized for human GAPDH. the following primer pairs were used: […]

SREBP1c [2] = assay: qPCR of SREBP1c expression in PMA-differentiated U937 cells; assay type: cell-based, human; details: U937 differentiated with PMA 72 h; 10 μM, 6 hours
Experimental: as §4, §5, §6

SCD1 = assay: qPCR of SCD1 expression in PMA-differentiated U937 cells; assay type: cell-based, human; details: U937 differentiated with PMA 72 h; 10 μM, 6 hours
Experimental: as §4, §5, §6

TNFα = assay: qPCR of TNFα expression in differentiated U937 cells treated with LPS; assay type: cell-based, human; details: differentiated U937, 6 hours, 10 μM in combination with LPS (100 ng/ml)
Experimental: (§7) U937 cells differentiated with PMA for 72 hours were treated with LPS (100 ng/ml) in combination with T0901317 (10 μM) or with the title compounds (10 μM). […] (n=3/group). *p<0.05, **p<0.01, ***p<0.001.
as §6

[3] = system: murine Lewis lung carcinoma cells (LLC); assay: growth of LLC tumor cells in vitro; assay type: cell-based; details: 96 hours, 10 μM
Text: (§8) We have performed a set of experiments to evaluate whether some LXR modulators, particularly PFM009 (13) and PFM018 (25) influence the growth of the murine Lewis lung carcinoma cells (LLC) in vitro and in vivo.

Abca1 [4] = assay: qPCR of LXR target gene Abca1 in LLC tumor cells; assay type: cell-based, murine
Text: as §8

LLC tumor = LLC tumor growth in vivo in C57BL/6 mice; details: 1×10^6 LLC cells subcutaneously, 30 mg/Kg/day for five consecutive days from day six
Experimental: Then, we tested whether these compounds could influence LLC tumor growth in vivo. To do that, C57BL/6 mice were challenged with 1×10^6 LLC tumor cells subcutaneously. Six days later, tumor-bearing mice were treated with PFM009 or PFM018 (30 mg/Kg/day) for five consecutive days and then evaluated for tumor growth.

SREBP1c [5] = assay: qPCR of SREBP1c expression in HepG2 cells; assay type: cell-based, human; details: 10 μM
Experimental: HepG2 cells were treated with T0901317 (10 μM), 22R—HC (3) (10 μM) or with the tested compound (10 μM). […] (n=3/group). *p<0.05, **p<0.01, ***p<0.001.
LXR agonists induce the expression of target genes, which are involved in cholesterol homeostasis, particularly in the reverse cholesterol transport pathway.43 Indeed, LXR agonists induce the expression of ABCA1 both in macrophages and in many tissues of the periphery such as the intestine.44 Moreover, ABCA1 regulates cholesterol efflux to APOAI acceptors.45 In the liver, LXR activation promotes the biosynthesis of fatty acids, a process also termed as de novo lipogenesis by inducing the expression of the master regulator of hepatic lipogenesis sterol-regulatory element-binding protein 1C (SREBP-1c), as well as several downstream genes in the SREBP-1c pathway, including steroyl CoA desaturase 1 (SCD1) and fatty acid synthase (FASN).43 Therefore, it was investigated, by quantitative PCR (qPCR), the expression of ABCA1, SREBP1c, FASN, and SCD1, by using RNA from monocytic U937 cells (FIG. 3) and from hepatic HepG2 cells (FIG. 4) stimulated with our compounds, the non-steroidal agonist T0901317 or the endogenous ligand 22R—HC (3) as positive controls. […] 43,22 was evaluated. […]
Quantitative Real-Time-PCR. […] The comparative Ct method was used to quantify transcripts that were normalized for human GAPDH. the following primer pairs were used: […]

MCP-1/CCL2 = assay: qPCR of CCL2 expression in differentiated U937 cells treated with LPS; assay type: cell-based, human; details: differentiated U937, 6 hours, 10 μM in combination with LPS (100 ng/ml)
Experimental: as §7, §6

[6] = % of compound effect versus 8 μM of 22R-HC
[7] = read-out: LXRβ Efficacy (%) ± SD, % of compound effect versus 8 μM of 22R-HC

CC[C@H](C(=O)C[C@@H](C)[C@H]1CC[C@H]2[C@@H]3CC=C4C[C@@H](O)CC[C@]4(C)[C@H]3CC[C@]12C)C(C)C [Compound 25, 3β-Hydroxystigmast-5-ene-23-one]
LXRα Efficacy (%) ± SD (hLXRα; [6]): lowest efficacy at LXRα | EC50 (hLXRα): 14.5 µM | Emax (hLXRα): 12.4 ± 4.2% | LXR isoform selectivity profile (hLXRα): good selectivity for the LXRβ isoform in terms of EC50; also recorded: LXRβ-selective agonist; also recorded: selective LXRβ agonist | EC50 (hLXRβ): 6.02 ± 1.2 µM | Emax (hLXRβ; [7]): ~50% | beta/alfa efficacy ratio (hLXRβ; LXRβ efficacy over LXRα efficacy): 3.7 | ABCA1 expression (ABCA1 [1]): strong induction of ABCA1 expression | SREBP-1c up-regulation (SREBP1c [2]): poor activators of SREBP1c and SCD1 | SCD1 expression (SCD1): poor activators of SREBP1c and SCD1 | inhibition of TNFα expression (TNFα): the most active | LLC tumor growth in vitro [3]: not able to alter LLC tumor growth in vitro | expression of the LXR target gene Abca1 (Abca1 [4]): induced the expression of the LXR target gene Abca1 | LLC tumor growth in vivo (LLC tumor): significant control of LLC tumor growth

CC(C)[C@@H](C)[C@@H]1O[C@H]1[C@@H](C)[C@H]1CC[C@H]2C3=CC=C4C[C@@H](O)CC[C@]4(C)[C@H]3CC[C@]12C [Compound 16, (22S,23S)-22,23-Epoxyergosta-5,7-diene-3β-ol]
EC50 (hLXRα): 1.5 ± 0.12 µM | Emax (hLXRα; [6]): 51.7 ± 3.8% | LXR isoform selectivity profile (hLXRα): non-selective and poorly preferential LXRα agonists | EC50 (hLXRβ): 1.96 ± 0.05 µM | Emax (hLXRβ; % of compound effect versus 8 μM of 22R-HC, read-out: LXRβ Efficacy (%) ± SD): 48.5 ± 13% | SREBP-1c up-regulation (SREBP1c [5]): significant up-regulation of SREBP-1c | inhibition of CCL2 expression (MCP-1/CCL2): same grade of potency of the positive control T0901317

CC(C)[C@@H](C)C[C@@H](O)[C@@H](C)[C@H]1CC[C@H]2C3=CC=C4C[C@@H](O)CC[C@]4(C)[C@H]3CC[C@]12C
melting point: 117.3 to 121 °C

CC[C@@H](C(C)C)[C@H]1O[C@@H]1[C@@H](C)[C@H]1CC[C@H]2[C@@H]3CC=C4C[C@@H](O)CC[C@]4(C)[C@H]3CC[C@]12C [Compound 13, (22R,23R)-22,23-Epoxystigmast-5-ene-3β-ol]
EC50 (hLXRα): 2.09 ± 0.57 µM | Emax (hLXRα): 489 ± 89.1% | LXR isoform selectivity profile (hLXRα): non-selective and poorly preferential LXRα agonists; also recorded: non-selective ligands; also recorded: non-selective LXR agonists | EC50 (hLXRβ): 3.79 ± 0.82 µM | Emax (hLXRβ; [7]): 142 ± 16.8% | ABCA1 expression (ABCA1 [1]): strong induction of ABCA1 expression | SREBP-1c up-regulation (SREBP1c [2]): poor activators of SREBP1c and SCD1 | SCD1 expression (SCD1): poor activators of SREBP1c and SCD1 | SREBP-1c up-regulation (SREBP1c [5]): significant up-regulation of SREBP-1c | inhibition of TNFα expression (TNFα): the most active | LLC tumor growth in vitro [3]: not able to alter LLC tumor growth in vitro | expression of the LXR target gene Abca1 (Abca1 [4]): induced the expression of the LXR target gene Abca1 | LLC tumor growth in vivo (LLC tumor): significant control of LLC tumor growth
